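Interpolation was linear, between the two tested concentrations surrounding the appropriate level; five concentrations were tested over 48 hours in 96-well plates. The concentration for full growth arrest is given as TGI.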
Key:
Experiment in all cases: growth of human tumour cells (NCI), 48 h
PC-3 prostate = tested on: PC-3 prostate
NCI-H460 lung = tested on: NCI-H460 lung
OVCAR-8 ovarian = tested on: OVCAR-8 ovarian
HT29 colon = tested on: HT29 colon
OVCAR-4 ovarian = tested on: OVCAR-4 ovarian
HCT-15 colon = tested on: HCT-15 colon
SF-268 CNS = tested on: SF-268 CNS
SF-539 CNS = tested on: SF-539 CNS
A549 NSCLC = tested on: A549 NSCLC
SK-OV-3 ovarian = tested on: SK-OV-3 ovarian
NCI/ADR-RES ovarian = tested on: NCI/ADR-RES ovarian
EKVX NSCLC = tested on: EKVX NSCLC
K-562 leukemia = tested on: K-562 leukemia
SW-620 colon = tested on: SW-620 colon
CCRF-CEM leukemia = tested on: CCRF-CEM leukemia
SR leukemia = tested on: SR leukemia
SN12C renal = tested on: SN12C renal
MALME-3M melanoma = tested on: MALME-3M melanoma
MDA-MB-231 breast = tested on: MDA-MB-231 breast
SF-295 CNS = tested on: SF-295 CNS
HOP-92 NSCLC = tested on: HOP-92 NSCLC
MDA-N = tested on: MDA-N
SNB-75 CNS = tested on: SNB-75 CNS
COLO 205 colon = tested on: COLO 205 colon
SK-MEL-5 melanoma = tested on: SK-MEL-5 melanoma
TK-10 renal = tested on: TK-10 renal
DU-145 prostate = tested on: DU-145 prostate
MDA-MB-435 = tested on: MDA-MB-435
OVCAR-5 ovarian = tested on: OVCAR-5 ovarian
UACC-257 melanoma = tested on: UACC-257 melanoma
NCI-H23 lung = tested on: NCI-H23 lung
HS 578T breast = tested on: HS 578T breast
CAKI-1 renal = tested on: CAKI-1 renal
IGROV1 ovarian = tested on: IGROV1 ovarian
UACC-62 melanoma = tested on: UACC-62 melanoma
HL-60(TB) leukemia = tested on: HL-60(TB) leukemia
M14 melanoma = tested on: M14 melanoma
U251 CNS = tested on: U251 CNS
MCF7 breast = tested on: MCF7 breast
A498 renal = tested on: A498 renal
SK-MEL-2 melanoma = tested on: SK-MEL-2 melanoma
OVCAR-3 ovarian = tested on: OVCAR-3 ovarian
HOP-62 NSCLC = tested on: HOP-62 NSCLC
UO-31 renal = tested on: UO-31 renal
BT-549 breast = tested on: BT-549 breast
LOX IMVI melanoma = tested on: LOX IMVI melanoma
MOLT-4 leukemia = tested on: MOLT-4 leukemia
HCT-116 colon = tested on: HCT-116 colon
RXF 393 renal = tested on: RXF 393 renal
NCI-H226 lung = tested on: NCI-H226 lung
SK-MEL-28 melanoma = tested on: SK-MEL-28 melanoma
T-47D breast = tested on: T-47D breast
HCC-2998 colon = tested on: HCC-2998 colon
786-0 renal = tested on: 786-0 renal
RPMI-8226 leukemia = tested on: RPMI-8226 leukemia
ACHN renal = tested on: ACHN renal
SNB-19 CNS = tested on: SNB-19 CNS
NCI-H522 lung = tested on: NCI-H522 lung
KM12 colon = tested on: KM12 colon

## O=c1cc(-c2cc(O)c(O)c(-c3c(O)cc4oc(-c5ccc(O)c(O)c5)cc(=O)c4c3O)c2)oc2cc(O)cc(O)c12
PC-3 prostate
  TGI: > 25 µM
NCI-H460 lung
  TGI: > 25 µM
OVCAR-8 ovarian
  TGI: > 25 µM
HT29 colon
  TGI: > 25 µM
OVCAR-4 ovarian
  TGI: > 25 µM
HCT-15 colon
  TGI: > 25 µM
SF-268 CNS
  TGI: > 25 µM
SF-539 CNS
  TGI: > 25 µM
A549 NSCLC
  TGI: > 25 µM
SK-OV-3 ovarian
  TGI: > 25 µM
NCI/ADR-RES ovarian
  TGI: > 25 µM
EKVX NSCLC
  TGI: > 25 µM
K-562 leukemia
  TGI: > 25 µM
SW-620 colon
  TGI: > 25 µM
CCRF-CEM leukemia
  TGI: > 25 µM
SR leukemia
  TGI: > 25 µM
SN12C renal
  TGI: > 25 µM
MALME-3M melanoma
  TGI: > 25 µM
MDA-MB-231 breast
  TGI: > 25 µM
SF-295 CNS
  TGI: > 25 µM
HOP-92 NSCLC
  TGI: > 25 µM
MDA-N
  TGI: > 25 µM
SNB-75 CNS
  TGI: > 25 µM
COLO 205 colon
  TGI: > 25 µM
SK-MEL-5 melanoma
  TGI: > 25 µM
TK-10 renal
  TGI: > 25 µM
DU-145 prostate
  TGI: > 25 µM
MDA-MB-435
  TGI: > 25 µM
OVCAR-5 ovarian
  TGI: > 25 µM
UACC-257 melanoma
  TGI: > 25 µM
NCI-H23 lung
  TGI: > 25 µM
HS 578T breast
  TGI: > 25 µM
CAKI-1 renal
  TGI: > 25 µM
IGROV1 ovarian
  TGI: > 25 µM
UACC-62 melanoma
  TGI: > 25 µM
HL-60(TB) leukemia
  TGI: > 25 µM
M14 melanoma
  TGI: > 25 µM
U251 CNS
  TGI: > 25 µM
MCF7 breast
  TGI: > 25 µM
A498 renal
  TGI: > 25 µM
SK-MEL-2 melanoma
  TGI: > 25 µM
OVCAR-3 ovarian
  TGI: > 25 µM
HOP-62 NSCLC
  TGI: > 25 µM
UO-31 renal
  TGI: > 25 µM
BT-549 breast
  TGI: > 25 µM
LOX IMVI melanoma
  TGI: > 25 µM
MOLT-4 leukemia
  TGI: > 25 µM
HCT-116 colon
  TGI: > 25 µM
RXF 393 renal
  TGI: > 25 µM
NCI-H226 lung
  TGI: > 25 µM
SK-MEL-28 melanoma
  TGI: > 25 µM
T-47D breast
  TGI: > 25 µM
HCC-2998 colon
  TGI: > 25 µM

## CC(C)(C)c1cc(C(=O)/C=C/c2ccc3c(c2)OCO3)cc(C(C)(C)C)c1O
PC-3 prostate
  TGI: 21.8 µM
NCI-H460 lung
  TGI: 15.7 µM
OVCAR-8 ovarian
  TGI: > 100 µM
HT29 colon
  TGI: 28 µM
OVCAR-4 ovarian
  TGI: 78.7 µM
HCT-15 colon
  TGI: 33.9 µM
SF-268 CNS
  TGI: > 41.6 µM
SF-539 CNS
  TGI: 20 µM
A549 NSCLC
  TGI: > 86.6 µM
SK-OV-3 ovarian
  TGI: > 100 µM
NCI/ADR-RES ovarian
  TGI: 16.8 µM
EKVX NSCLC
  TGI: > 100 µM
786-0 renal
  TGI: 21 µM
K-562 leukemia
  TGI: > 39.1 µM
SW-620 colon
  TGI: 35.8 µM
CCRF-CEM leukemia
  TGI: 16.3 µM
SR leukemia
  TGI: 10 µM
SN12C renal
  TGI: 76.4 µM
MALME-3M melanoma
  TGI: > 53.4 µM
MDA-MB-231 breast
  TGI: 37.7 µM
SF-295 CNS
  TGI: > 31.2 µM
HOP-92 NSCLC
  TGI: > 100 µM
MDA-N
  TGI: 5.53 µM
SNB-75 CNS
  TGI: 15.4 µM
COLO 205 colon
  TGI: 13.2 µM
SK-MEL-5 melanoma
  TGI: 16.6 µM
TK-10 renal
  TGI: 58.1 µM
DU-145 prostate
  TGI: > 58 µM
MDA-MB-435
  TGI: 7.04 µM
OVCAR-5 ovarian
  TGI: > 76.9 µM
UACC-257 melanoma
  TGI: 22.1 µM
NCI-H23 lung
  TGI: > 86.4 µM
HS 578T breast
  TGI: > 27.1 µM
CAKI-1 renal
  TGI: > 100 µM
IGROV1 ovarian
  TGI: > 100 µM
UACC-62 melanoma
  TGI: > 45.5 µM
RPMI-8226 leukemia
  TGI: 16.9 µM
HL-60(TB) leukemia
  TGI: 13.9 µM
M14 melanoma
  TGI: 65.3 µM
U251 CNS
  TGI: 19.3 µM
MCF7 breast
  TGI: > 100 µM
A498 renal
  TGI: > 56.4 µM
SK-MEL-2 melanoma
  TGI: 10.4 µM
OVCAR-3 ovarian
  TGI: 23 µM
ACHN renal
  TGI: > 100 µM
HOP-62 NSCLC
  TGI: > 100 µM
UO-31 renal
  TGI: > 81 µM
BT-549 breast
  TGI: 27.2 µM
LOX IMVI melanoma
  TGI: > 55.8 µM
SNB-19 CNS
  TGI: > 70.2 µM
MOLT-4 leukemia
  TGI: > 26.6 µM
HCT-116 colon
  TGI: 24.5 µM
RXF 393 renal
  TGI: 7.58 µM
NCI-H226 lung
  TGI: > 80.6 µM
SK-MEL-28 melanoma
  TGI: > 100 µM
T-47D breast
  TGI: 23.8 µM
NCI-H522 lung
  TGI: 66 µM
KM12 colon
  TGI: 22.7 µM
HCC-2998 colon
  TGI: 3.74 µM

## O=c1cc(-c2ccccc2)oc2c(-c3cc(Cl)cc4c(=O)cc(-c5ccccc5)oc34)cc(Cl)cc12
PC-3 prostate
  TGI: > 100 µM
NCI-H460 lung
  TGI: > 100 µM
OVCAR-8 ovarian
  TGI: > 100 µM
HT29 colon
  TGI: > 100 µM
OVCAR-4 ovarian
  TGI: > 100 µM
HCT-15 colon
  TGI: > 100 µM
SF-268 CNS
  TGI: > 100 µM
SF-539 CNS
  TGI: 44.4 µM
A549 NSCLC
  TGI: > 100 µM
SK-OV-3 ovarian
  TGI: 85.2 µM
NCI/ADR-RES ovarian
  TGI: > 100 µM
EKVX NSCLC
  TGI: > 100 µM
786-0 renal
  TGI: > 100 µM
K-562 leukemia
  TGI: > 100 µM
SW-620 colon
  TGI: > 100 µM
CCRF-CEM leukemia
  TGI: 54.6 µM
SR leukemia
  TGI: > 100 µM
SN12C renal
  TGI: > 100 µM
MALME-3M melanoma
  TGI: 75.8 µM
MDA-MB-231 breast
  TGI: > 100 µM
SF-295 CNS
  TGI: > 100 µM
MDA-N
  TGI: > 100 µM
SNB-75 CNS
  TGI: 94 µM
COLO 205 colon
  TGI: > 100 µM
SK-MEL-5 melanoma
  TGI: 32.8 µM
TK-10 renal
  TGI: > 100 µM
DU-145 prostate
  TGI: > 100 µM
MDA-MB-435
  TGI: > 100 µM
OVCAR-5 ovarian
  TGI: > 100 µM
NCI-H23 lung
  TGI: > 100 µM
HS 578T breast
  TGI: > 100 µM
IGROV1 ovarian
  TGI: > 100 µM
UACC-62 melanoma
  TGI: 48.4 µM
RPMI-8226 leukemia
  TGI: > 100 µM
HL-60(TB) leukemia
  TGI: > 100 µM
M14 melanoma
  TGI: > 100 µM
U251 CNS
  TGI: > 100 µM
MCF7 breast
  TGI: > 100 µM
A498 renal
  TGI: 56.7 µM
SK-MEL-2 melanoma
  TGI: > 100 µM
OVCAR-3 ovarian
  TGI: 80.5 µM
ACHN renal
  TGI: > 100 µM
HOP-62 NSCLC
  TGI: > 100 µM
UO-31 renal
  TGI: 60.4 µM
BT-549 breast
  TGI: > 100 µM
LOX IMVI melanoma
  TGI: > 100 µM
SNB-19 CNS
  TGI: > 100 µM
MOLT-4 leukemia
  TGI: 52.1 µM
RXF 393 renal
  TGI: > 100 µM
NCI-H226 lung
  TGI: 83 µM
SK-MEL-28 melanoma
  TGI: > 100 µM
T-47D breast
  TGI: 75.6 µM
NCI-H522 lung
  TGI: 55.3 µM
KM12 colon
  TGI: > 100 µM
HCC-2998 colon
  TGI: > 100 µM

— PubChem BioAssay (NCI)
